One block for each compound: values may come before it.
How the values were obtained:
[1] = test system: NCI-H2122; assay: fitted bottom plateau of viability curve, % of DMSO control; higher = less maximal inhibition; extreme values may be limits of the assay
Procedure, shortened: (§1)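 Compounds were dispensed acoustically as dose series, one compound per well, 24 h after seeding cells in 60 µl per well of 384-well plates (800 cells/well for NCI-H2122, 500 cells/well for SW837 and NCI-H358). Plates were incubated 144 h for SW837 and 72 h for the other two lines, then shaken 15 min and read for CellTiter-Glo luminescence on an EnVision reader. Signals were converted to percent of DMSO controls. The relative IC50, averaged over replicates, and the lower plateau come from fitting a four-parameter nonlinear model.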

[2] = test system: NCI-H358; assay: as above
Procedure, shortened: as §1

[3] = test system: SW837; assay: as above
Procedure, shortened: as §1

[4] = test system: NCI-H2122; assay: relative IC50 of cell viability (CellTiter-Glo); higher = less potent
Protocol: (§2)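 CellTiter-Glo proliferation assay in KRAS G12C mutant NCI-H2122 (72 h), SW837 (144 h) and NCI-H358 cells in 384-well plates. Monotherapy dose response was fitted with a four-parameter curve after normalisation to DMSO controls (% of control, PoC). IC50 is the relative IC50, averaged over replicates. Bottom is the fitted lower plateau in %PoC; Max.Conc. is the top dose tested.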

[5] = test system: SW837; assay: as above
Protocol: as §2

SMILES: C[C@H](Nc1ncnc2nc[nH]c12)c1cc2cccc(Cl)c2c(=O)n1-c1ccccc1 [Duvelisib] (top concentration tested 9999.9 nM)
- fitted bottom plateau of viability curve [1]: 56.5%
- fitted bottom plateau of viability curve [2]: 61%
- fitted bottom plateau of viability curve [3]: 94.1%

SMILES: O=C(/C=C/N1C[C@H]2C[C@@H]1CN2c1ccccn1)c1ccccc1O [PFI-3] (top concentration tested 50000 nM)
- fitted bottom plateau of viability curve [1]: 94%
- fitted bottom plateau of viability curve [2]: 93.4%
- fitted bottom plateau of viability curve [3]: 98.3%

SMILES: O=P1(N(CCCl)CCCl)NCCCO1 (stereo not given) [Cyclophosphamide] (top concentration tested 10000 nM)
- fitted bottom plateau of viability curve [1]: 88.9%
- fitted bottom plateau of viability curve [2]: 99.7%
- fitted bottom plateau of viability curve [3]: 87.3%

SMILES: O=c1cc(-c2cccc3c2Sc2ccccc2S3)oc(N2CCOCC2)c1 (top concentration tested 9999.9 nM)
- fitted bottom plateau of viability curve [1]: 70.7%
- fitted bottom plateau of viability curve [2]: 76.8%
- fitted bottom plateau of viability curve [3]: 101%

SMILES: CC[C@H](Nc1ncnc2[nH]cnc12)c1nc2cccc(F)c2c(=O)n1-c1ccccc1 [Cal-101] (top concentration tested 10000 nM)
- fitted bottom plateau of viability curve [1]: 75.5%
- fitted bottom plateau of viability curve [2]: 84.2%
- fitted bottom plateau of viability curve [3]: 85.3%

SMILES: COc1cc2nc(C)nc(N[C@H](C)c3cc(N)cc(C(F)(F)F)c3)c2cc1O[C@H]1CCOC1 [BI-3406 (SOSi)] (top concentration tested 1000.1 nM)
- fitted bottom plateau of viability curve [1]: 69.4%
- fitted bottom plateau of viability curve [2]: 82%
- fitted bottom plateau of viability curve [3]: 102%

SMILES: CS(=O)(=O)CCNCc1ccc(-c2ccc3ncnc(Nc4ccc(OCc5cccc(F)c5)c(Cl)c4)c3c2)o1 [Lapatinib] (top concentration tested 1000 nM)
- fitted bottom plateau of viability curve [1]: 77.5%
- fitted bottom plateau of viability curve [2]: 58.4%
- fitted bottom plateau of viability curve [3]: 92.9%

SMILES: O=C(c1cc(Cc2n[nH]c(=O)c3ccccc23)ccc1F)N1CCN(C(=O)C2CC2)CC1 [Olaparib] (top concentration tested 50000 nM)
- fitted bottom plateau of viability curve [1]: 63.9%
- fitted bottom plateau of viability curve [2]: 56.6%
- fitted bottom plateau of viability curve [3]: 88.2%

SMILES: CC1(N)CCN(c2cnc(-c3cccc(Cl)c3Cl)c(N)n2)CC1 [SHP099] (top concentration tested 1000.1 nM)
- fitted bottom plateau of viability curve [1]: 84.1%
- fitted bottom plateau of viability curve [2]: 88.2%
- fitted bottom plateau of viability curve [3]: 97%

SMILES: Oc1nc(-c2ccc(C(F)(F)F)cc2)nc2c1CSCC2 [XAV939] (top concentration tested 50000 nM)
- fitted bottom plateau of viability curve [1]: 81.5%
- fitted bottom plateau of viability curve [2]: 88.7%
- fitted bottom plateau of viability curve [3]: 89.3%

SMILES: CC(=O)[C@]1(O)Cc2c(O)c3c(c(O)c2[C@@H](O[C@H]2C[C@H](N)[C@H](O)[C@H](C)O2)C1)C(=O)c1ccccc1C3=O [Idarubicin] (top concentration tested 100.01 nM)
- fitted bottom plateau of viability curve [1]: 39.7%
- fitted bottom plateau of viability curve [3]: 38.7%
- relative IC50 of cell viability [4]: 9.8 nM
- relative IC50 of cell viability [5]: 15.3 nM

SMILES: C[C@H](NC(=O)c1c(N)nn2cccnc12)c1cc2cccc(C#Cc3cnn(C)c3)c2c(=O)n1-c1ccccc1 [IPI-549] (top concentration tested 1000 nM)
- fitted bottom plateau of viability curve [1]: 86.2%
- fitted bottom plateau of viability curve [2]: 91%
- fitted bottom plateau of viability curve [3]: 91.6%

SMILES: COc1cccc2c1C(=O)c1c(O)c3c(c(O)c1C2=O)C[C@@](O)(C(=O)CO)C[C@@H]3O[C@H]1C[C@H](N)[C@H](O)[C@H](C)O1 [Doxorubicin] (top concentration tested 1000 nM)
- fitted bottom plateau of viability curve [1]: 34.5%
- fitted bottom plateau of viability curve [3]: 1.81%
- relative IC50 of cell viability [4]: 207 nM
- relative IC50 of cell viability [5]: 142 nM

SMILES: Nc1ccn([C@@H]2O[C@H](CO)[C@@H](O)C2(F)F)c(=O)n1 [Gemcitabine] (top concentration tested 99.925 nM)
- fitted bottom plateau of viability curve [1]: 28.4%
- fitted bottom plateau of viability curve [3]: 18%
- relative IC50 of cell viability [4]: 7.62 nM
- relative IC50 of cell viability [5]: 12.3 nM

SMILES: CO[C@@]12[C@H](COC(N)=O)C3=C(C(=O)C(C)=C(N)C3=O)N1C[C@@H]1N[C@@H]12 [Mitomycin C] (top concentration tested 10000 nM)
- fitted bottom plateau of viability curve [1]: 2.51%
- fitted bottom plateau of viability curve [3]: 0.69%
- relative IC50 of cell viability [4]: 460 nM
- relative IC50 of cell viability [5]: 240 nM

SMILES: CCC1=C[C@@H]2CN(C1)Cc1c([nH]c3ccccc13)[C@@](C(=O)OC)(c1cc3c(cc1OC)N(C)[C@H]1[C@@](O)(C(=O)OC)[C@H](OC(C)=O)[C@]4(CC)C=CCN5CC[C@]31[C@@H]54)C2 [Vinorelbine] (top concentration tested 100.01 nM)
- fitted bottom plateau of viability curve [1]: 5.21%
- fitted bottom plateau of viability curve [3]: 42.9%
- relative IC50 of cell viability [4]: 9.06 nM
- relative IC50 of cell viability [5]: 17.1 nM

SMILES: CN(Cc1cnc2nc(N)nc(N)c2n1)c1ccc(C(=O)N[C@@H](CCC(=O)O)C(=O)O)cc1 [Methotrexate] (top concentration tested 10000 nM)
- fitted bottom plateau of viability curve [1]: 37.4%
- fitted bottom plateau of viability curve [3]: 31.9%
- relative IC50 of cell viability [4]: 7.98 nM
- relative IC50 of cell viability [5]: 57 nM

SMILES: O=C(C1CC1)N1CC[C@@H](Cn2c(-c3ccc(-c4ccc5occc5c4)cc3)nc3cnccc32)C1 (top concentration tested 9999.9 nM)
- fitted bottom plateau of viability curve [1]: 75.1%
- fitted bottom plateau of viability curve [2]: 96.6%
- fitted bottom plateau of viability curve [3]: 91.7%

SMILES: CC/C(=C(\c1ccccc1)c1ccc(OCCN(C)C)cc1)c1ccccc1 [Tamoxifen] (top concentration tested 10000 nM)
- fitted bottom plateau of viability curve [1]: 66%
- fitted bottom plateau of viability curve [2]: 67.9%
- fitted bottom plateau of viability curve [3]: 88.6%

SMILES: O=C(c1c(F)ccc(NS(=O)(=O)N2CC[C@@H](F)C2)c1F)c1c[nH]c2ncc(-c3cnc(C4CC4)nc3)cc12 [PLX8394] (top concentration tested 5000 nM)
- fitted bottom plateau of viability curve [1]: 78.7%
- fitted bottom plateau of viability curve [2]: 57.8%
- fitted bottom plateau of viability curve [3]: 96.3%

SMILES: COc1cc2cc(c1Cl)N(C)C(=O)C[C@H](OC(=O)C(C)C)[C@]1(C)O[C@@H]1[C@H](C)[C@@H]1C[C@@](O)(NC(=O)O1)[C@H](OC)/C=C/C=C(\C)C2 [Ansamitocin P3] (top concentration tested 99.976 nM)
- fitted bottom plateau of viability curve [1]: 3.79%
- fitted bottom plateau of viability curve [3]: 26.7%
- relative IC50 of cell viability [4]: 0.0585 nM
- relative IC50 of cell viability [5]: 0.162 nM

SMILES: CN(NC(=O)CC(=O)NN(C)C(=S)c1ccccc1)C(=S)c1ccccc1 [Elesclomol] (top concentration tested 10000 nM)
- fitted bottom plateau of viability curve [1]: 1.27%
- fitted bottom plateau of viability curve [3]: 2.84%
- relative IC50 of cell viability [4]: 22.7 nM
- relative IC50 of cell viability [5]: 39 nM

SMILES: CC(=O)Nc1cccc(-n2c(=O)n(C3CC3)c(=O)c3c(Nc4ccc(I)cc4F)n(C)c(=O)c(C)c32)c1 [Trametinib] (top concentration tested 1000 nM)
- fitted bottom plateau of viability curve [1]: 3.01%
- fitted bottom plateau of viability curve [3]: 11.6%
- relative IC50 of cell viability [4]: 21.7 nM
- relative IC50 of cell viability [5]: 33.4 nM

SMILES: O=C(O)C(=O)O.[NH-][C@@H]1CCCC[C@H]1[NH-].[Pt+2] [Oxaliplatin] (top concentration tested 50000 nM)
- fitted bottom plateau of viability curve [1]: 31.5%
- fitted bottom plateau of viability curve [3]: 21%
- relative IC50 of cell viability [4]: 9200 nM
- relative IC50 of cell viability [5]: 5890 nM

SMILES: Cc1c(Cn2c(C)nc3c(C(=O)O)cc(N4CCOCC4)cc32)cccc1C(F)(F)F (top concentration tested 9999.9 nM)
- fitted bottom plateau of viability curve [1]: 70.8%
- fitted bottom plateau of viability curve [2]: 93.8%
- fitted bottom plateau of viability curve [3]: 98.7%

SMILES: O=C(c1ccc(F)c(F)c1Nc1ccc(I)cc1F)N1CC(O)([C@@H]2CCCCN2)C1 [Cobimetinib] (top concentration tested 999.97 nM)
- fitted bottom plateau of viability curve [1]: 3.48%
- fitted bottom plateau of viability curve [3]: 31.2%
- relative IC50 of cell viability [4]: 139 nM
- relative IC50 of cell viability [5]: 178 nM

SMILES: CCCc1cc(C)[nH]c(=O)c1CNC(=O)c1cc(-c2ccnc(N3CCN(C)CC3)c2)cc2c1cnn2C(C)C [GSK343] (top concentration tested 4999.9 nM)
- fitted bottom plateau of viability curve [1]: 83.2%
- fitted bottom plateau of viability curve [2]: 92.7%
- fitted bottom plateau of viability curve [3]: 94.5%

SMILES: Cc1[nH]c2ccccc2c1CCNCc1ccc(/C=C/C(=O)NO)cc1 [Panobinostat] (top concentration tested 99.878 nM)
- fitted bottom plateau of viability curve [1]: 11.3%
- fitted bottom plateau of viability curve [3]: 0.651%
- relative IC50 of cell viability [4]: 16.4 nM
- relative IC50 of cell viability [5]: 20.9 nM

SMILES: CCc1cnn2c(NCc3ccc[n+]([O-])c3)cc(N3CCCC[C@H]3CCO)nc12 (top concentration tested 1000 nM)
- fitted bottom plateau of viability curve [1]: 3.3%
- fitted bottom plateau of viability curve [3]: 5.65%
- relative IC50 of cell viability [4]: 8.91 nM
- relative IC50 of cell viability [5]: 25.9 nM

SMILES: Nc1nc(Cl)nc2c1ncn2[C@@H]1O[C@H](CO)[C@@H](O)[C@@H]1F [Clofarabine] (top concentration tested 10000 nM)
- fitted bottom plateau of viability curve [1]: 23.7%
- fitted bottom plateau of viability curve [3]: 13.4%
- relative IC50 of cell viability [4]: 322 nM
- relative IC50 of cell viability [5]: 1150 nM

SMILES: CCOC(=O)CCNc1cc(N2CCc3ccccc3CC2)nc(-c2ccccn2)n1 [GSK-J4] (top concentration tested 50000 nM)
- fitted bottom plateau of viability curve [1]: 61.7%
- fitted bottom plateau of viability curve [3]: 28.7%
- relative IC50 of cell viability [4]: 64800 nM
- relative IC50 of cell viability [5]: 12300 nM

More lines, main results first:

- relative IC50 of cell viability [4]: 5790 nM
- relative IC50 of cell viability [5]: 6500 nM
SMILES: CC(C)(C)c1ccc(S(=O)(=O)NCc2ccc(C(=O)Nc3cccnc3)cc2)cc1 [STF-31] (top concentration tested 10000 nM)
- fitted bottom plateau of viability curve [1]: 12.7%
- fitted bottom plateau of viability curve [3]: 0%

- relative IC50 of cell viability [4]: 210 nM
- relative IC50 of cell viability [5]: 30.6 nM
SMILES: N#CN=C(NCCCCCCOc1ccc(Cl)cc1)Nc1ccncc1 [GMX1778] (top concentration tested 9999.9 nM)
- fitted bottom plateau of viability curve [1]: 5.11%
- fitted bottom plateau of viability curve [3]: 17.9%

- relative IC50 of cell viability [4]: 2850 nM
- relative IC50 of cell viability [5]: 5600 nM
SMILES: Cc1cn(CCN2CCN(c3ccccc3-c3cc(C#N)cc(C(=O)NCCCN4CCCC4)c3)CC2)c2ccccc12 [LLY-507] (top concentration tested 9999.9 nM)
- fitted bottom plateau of viability curve [1]: 24%
- fitted bottom plateau of viability curve [3]: 0%

From the supplement of paper PMC11424490
